Assay [1] deals with paclitaxel-induced peripheral nerve disorder rats. Briefly: von Frey test in paclitaxel-induced peripheral nerve disorder rats. It is filed as in vivo. The following applies: Rattus norvegicus, ip; single intraperitoneal dose of 300 μ/kg; higher of the thresholds after 1 hour and 5 hours; normal threshold 15; read-out: Recovery rate of 50% reaction threshold value (%). The method, then:
The effect of the compound of the present invention was tested for a peripheral nerve disorder which is a side effect induced by the administration of paclitaxel (an anti-cancer agent) such as hyperesthesia including allodynia (severe pain induced by such tactile stimuli which usually cause no pain). The compound of the present invention was intraperitoneally administered to rats as a test drug to conduct a von Frey test.
Male SD rats of six weeks age (one group comprising six rats) were used as experimental animals and paclitaxel (2 mg/kg) was intraperitoneally administered every other day for four times in total to prepare paclitaxel-induced peripheral nerve disorder rats. During 18 and 25 days or during 20 to 27 days after initiation of paclitaxel administration, the test drug was intraperitoneally administered in a single dose of […] and the following von Frey test was conducted.
The rats of the above (1) were placed in a transparent acrylic cage with a wire-meshed floor and habituated for about three minutes and the 50% reaction threshold values to the mechanical stimulus of right hind limb were measured before administration of the test drug and after 1, 5 and 24 hours from initiation of the administration.
The measurement was conducted using von Frey filaments (manufactured by North Coast Medical Inc.) in accordance with the methods of Chaplan, et al. (Journal of Neuroscience Methods, vol. 53, no. 1, pages 55 to 63, 1994) and Dixon, et al. (Annual Review of Pharmacology and Toxicology, vol. 20, pages 441 to 462, 1980). […] The case where the rat escaped at the instance of removing the filament was also called positive. When the positive reaction was noted, stimulus was conducted similarly using a filament of one rank weaker while, when no reaction was noted, stimulus was conducted similarly using a filament of one rank stronger and the point when the reaction changed from negative to positive or from positive to negative was called the first two reactions. After that, stimulus was conducted for continuous four times by the same up-down method. A 50% reaction threshold value to the mechanical stimulus was measured using the reaction to the six stimuli in total and then (mean value)±(standard error) for each group was calculated. Incidentally, when stimulus reached by that of 15.0 g without positive reaction or, when positive reaction continued to 0.4 g, then 15.0 g or 0.25 g was adopted as each threshold value, respectively. With regard to the higher 50% reaction threshold value between the 50% threshold values after 1 hour and 5 hours from administration of a test drug, a recovery rate (%) of the 50% reaction threshold value was calculated by the following expression in which 15 was adopted as the normal threshold value. Recovery rate (%) of 50% reaction threshold value=[(50% reaction threshold value after 1 hour or 5 hours from administration of test drug)−(50% reaction threshold value before administration of test drug)]/[(Normal threshold value)−(50% reaction threshold value before administration of test drug)]

A further assay deals with PC12 cells. The experiment in a line: Evaluation using PC12 cells; immunostaining method for MAPK phosphorylation. It is filed as cell-based. The following applies: 30 minutes. The method, then:
PC12 cells were stimulated using the compound of the present invention and the phosphorylation of MAPK was evaluated by means of immunostaining of the cells. The specific operation procedure is as follows.
A cover glass was placed on a 24-well plate followed by coating with poly-L-lysine. PC12 cells were seeded in a cell density of 50,000 cells/well. (The amount of the medium was 400 μL) On the first day after seeding the cells, the medium was exchanged to DMEM containing 1% fetal bovine serum (FBS) and 0.06% L-glutamine.
The compound which was previously diluted with DMSO was dissolved in 100 μl of medium. After 12 to 16 hours from the medium exchange, 100 μl out of 400 μl of the medium was removed from each well and, in place of that, 100 μl of a medium containing the compound was added.
After 30 minutes from the addition, fixation was conducted using 4% paraformaldehyde (PFA) for 10 minutes. The fixed cells were washed with a Tris-buffered saline (TBS) and a TBS containing 0.3% Triton X was added thereto followed by incubating at 37° C. for 30 minutes. This was washed with a TBS and blocked with a TBS containing 3% skim milk for 30 minutes (at room temperature).
This was washed with a TBS for one time and a primary antibody (anti-phospho-p42/44 MAPK antibody; cell signalings; #9102 being diluted with TBS to an extent of 1,000-fold) was added thereto followed by subjecting to the reaction at 4° C. for one night. The primary antibody was removed and washed with a TBS for three times. After that, the secondary antibody (Alexa 488 goat anti-rabbit antibody; Invitrogen: being diluted to an extent of 1,000-fold using a TBS containing 1% Block Ace) was added thereto and the reaction was conducted at room temperature for 3 hours. The secondary antibody was removed and, after washing with a TBS, fixation was conducted with 4% PFA for 1 hour.
This was washed with a TBS, Hoechst (diluted with a TBS to an extent of 2000-fold) was added thereto and nuclear staining was conducted. This was washed and mounted.
Taking the photographic pictures and counting the positive cells were conducted as follows. An all-in-one microscope (manufactured by Keyence) was used, exposing time for pMAPK (green) was made 1/2.8 s, the place was appropriately decided in a Hoechst-stained image and the pictures were taken. Four pictures per one glass sheet were taken.
Photoshop (Adobe) was used and the cells having above a certain luminance were judged to be positive. All cells were labeled using Hoechst 33342 manufactured by Invitrogen and the rate of pMAPK-positive cells in Hoechst-positive cells was calculated. (cf. Table 7)

The values below come from patent US8987486B2, “Trans-2-decenoic acid derivative and pharmaceutical agent containing the same” (Nagoya Industrial Science Research Institute, priority 2010, dated 2015).

With `CCCCCCC/C=C/C(=O)OCCCN(C)C` [Compound 2, (E)-3-(dimethylamino)propyl dec-2-enoate], the inhibition in vivo at 0.3 mg/kg in assay [1] came out at 58.1%. Besides, the “Rate of pMAPK-positive cells (%)” value is listed as 0% in the assay with PC12 cells (62.5 μg/mL), 19% in the assay on PC12 cells (125 μg/mL), 71% with PC12 cells (250 μg/mL) and 53% in the assay with PC12 cells (500 μg/mL).

On to `CCCCCCC/C=C/C(=O)N(CCCN(C)C)CCCN(C)C` [Compound 47, (E)-N,N-bis(3-(dimethylamino)propyl) dec-2-enamide], for which the inhibition in vivo at 0.3 mg/kg in assay [1] was determined as 37.4%. For the same molecule, the figures for the “Rate of pMAPK-positive cells (%)” value in the assay on PC12 cells (62.5 μg/mL), in the assay with PC12 cells (125 μg/mL) and in the assay with PC12 cells (250 μg/mL) were 17%, 33% and 23%, respectively.

In the case of `CCCCCCC/C=C/C(=O)N(CC)CC` [Compound 31, (E)-N,N-diethyl dec-2-enamide], the inhibition in vivo at 0.3 mg/kg in assay [1] turned out to be 43.1%. For the same molecule, the “Rate of pMAPK-positive cells (%)” value was 79% with PC12 cells (62.5 μg/mL), 95% with PC12 cells (125 μg/mL), 98% in the assay on PC12 cells (250 μg/mL) and 96% with PC12 cells (500 μg/mL).

On to `CCCCCCC/C=C/C(=O)N(CCN(C)C)CCN(C)C` [Compound 45, (E)-N,N-bis(2-(dimethylamino)ethyl) dec-2-enamide], for which, in assay [1], the inhibition in vivo at 0.3 mg/kg is 37%. Further, the “Rate of pMAPK-positive cells (%)” value amounted to 34% in the assay with PC12 cells (62.5 μg/mL), 67% in the assay with PC12 cells (125 μg/mL) and 50% in the assay with PC12 cells (250 μg/mL).

For the molecule `CCCCCCC/C=C/C(=O)N(C)CCN(C)C` [Compound 42, (E)-N-(2-(dimethylamino)ethyl)-N-methyl dec-2-enamide], the inhibition in vivo at 0.3 mg/kg in assay [1] was 48.7%. The “Rate of pMAPK-positive cells (%)” value with PC12 cells (62.5 μg/mL) is given as 6%; with PC12 cells (125 μg/mL), 7%; in the assay on PC12 cells (250 μg/mL) it was 27%.

On to `CCCCCCC/C=C/C(=O)N(CC)CCN(C)C` [Compound 43, (E)-N-(2-(dimethylamino)ethyl)-N-ethyl dec-2-enamide], for which the inhibition in vivo at 0.3 mg/kg in assay [1] worked out at 40.3%. In addition, the “Rate of pMAPK-positive cells (%)” value was determined as 20% in the assay with PC12 cells (62.5 μg/mL), 26% in the assay on PC12 cells (125 μg/mL) and 49% with PC12 cells (250 μg/mL).

For `CCCCCCC/C=C/C(=O)N(CC)CCN(CC)CC` [Compound 44, (E)-N-(2-(diethylamino)ethyl)-N-ethyl dec-2-enamide], in assay [1], the inhibition in vivo at 0.3 mg/kg amounted to 62.6%. Also, the “Rate of pMAPK-positive cells (%)” value in the assay on PC12 cells (62.5 μg/mL) was determined as 17%; with PC12 cells (125 μg/mL), 7%; in the assay on PC12 cells (250 μg/mL) it was 18%.

`CCCCCCC/C=C/C(=O)N(CCN(CC)CC)CCN(CC)CC` [Compound 46, (E)-N,N-bis(2-(diethylamino)ethyl) dec-2-enamide]: the inhibition in vivo at 0.3 mg/kg in assay [1] came to 19.9%. The “Rate of pMAPK-positive cells (%)” value in the assay with PC12 cells (62.5 μg/mL) is listed as 22%; in the assay with PC12 cells (125 μg/mL), 13%; in the assay on PC12 cells (250 μg/mL) it was 32%.

On to `CCCCCCC/C=C/C(=O)NCCCCC` [Compound 19, (E)-N-pentyl dec-2-enamide], for which the inhibition in vivo at 0.3 mg/kg in assay [1] was 73.7%.

In the case of `CCCCCCC/C=C/C(=O)NC(CCC)CCC` [Compound 24, (E)-N-(heptan-4-yl) dec-2-enamide], in assay [1], the inhibition in vivo at 0.3 mg/kg was determined as 56.1%.

On to `CCCCCCC/C=C/C(=O)NC(C)(C)CC(C)(C)C` [Compound 26, (E)-N-(2,4,4-trimethylpentan-2-yl) dec-2-enamide], for which, in assay [1], the inhibition in vivo at 0.3 mg/kg was 55.7%.

`CCCCCCC/C=C/C(=O)NCCCN(CC)CC` [Compound 39, (E)-N-3-(diethylamino)propyl dec-2-enamide]: the inhibition in vivo at 0.3 mg/kg in assay [1] was 49.7%.

Regarding `CCCCCCC/C=C/C(=O)N(CCCC)CCCC` [Compound 32, (E)-N,N-dibutyl dec-2-enamide], the inhibition in vivo at 0.3 mg/kg in assay [1] stood at 70.6%.

As to `CCCCCCC/C=C/C(=O)N(CCCCCC)CCCCCC` [Compound 34, (E)-N,N-dihexyl dec-2-enamide], the inhibition in vivo at 0.3 mg/kg in assay [1] is 48.3%.

With `CCCCCCC/C=C/C(=O)SCCC(C)C` [Compound 49, (E)-S-isopentyl dec-2-enethioate], the inhibition in vivo at 0.3 mg/kg in assay [1] is 69.3%.

Take `CCCCCCC/C=C/C(=O)SCCCCCCCCCC` [Compound 52, (E)-S-decyl dec-2-enethioate]: the inhibition in vivo at 0.3 mg/kg in assay [1] stood at 18.7%.

As for `CCCCCCC/C=C/C(=O)OCCOCC` [Compound 10, (E)-2-ethoxyethyl dec-2-enoate], the inhibition in vivo at 0.3 mg/kg in assay [1] turned out to be 26.4%.

As for `CCCCCCC/C=C/C(=O)Nc1ccccc1` [Compound 28, (E)-N-phenyl dec-2-enamide], the inhibition in vivo at 0.3 mg/kg in assay [1] amounted to 19.4%.

On to `CCCCCCC/C=C/C(=O)SCCCCCCC` [Compound 51, (E)-S-heptyl dec-2-enethioate], for which the inhibition in vivo at 0.3 mg/kg in assay [1] was found to be 45.7%.

As for `CCCCCCC/C=C/C(=O)NC` [Compound 15, (E)-N-methyl dec-2-enamide], the inhibition in vivo at 0.3 mg/kg in assay [1] was determined as 37.7%.

On to `CCCCCCC/C=C/C(=O)OC(COCC)COCC` [Compound 11, (E)-1,3-diethoxy-2-propyl dec-2-enoate], for which, in assay [1], the inhibition in vivo at 0.3 mg/kg turned out to be 37.6%.

As for `CCCCCCC/C=C/C(=O)N(CC)CCCCCCC` [Compound 35, (E)-N-ethyl-N-heptyl dec-2-enamide], the inhibition in vivo at 0.3 mg/kg in assay [1] came to 47.1%.

`CCCCCCC/C=C/C(=O)NC(CC)CCCCC` (stereo not shown) [Compound 25, (E)-N-(octan-3-yl) dec-2-enamide]: the inhibition in vivo at 0.3 mg/kg in assay [1] is 33.7%.
